For this assay, the target named is T1, HIV-1 protease (Human immunodeficiency virus type 1 group M subtype B, UniProt P04585).
T1 construct: host or cells: E. coli K12 L507/pHP10D
As to the kind of experiment: biochemical. The following applies: read-out: Fluorescence Assay IC50 (converted). On the procedure: Lyophils of E. coli K12 L507/pHP10D were obtained from the Northern Regional Research Laboratory, Peoria, Ill. 61604, under the accession number NRRL B-18560 (deposited Nov. 14, 1989).
A culture of E. coli K12 L507/pHP10D was grown to mid-log phase at 32° C. in LB media containing 12.5 μg/mL tetracycline. The cultivation temperature was quickly elevated to 40° C. to induce gene expression, and the cells were allowed to grow for 2.5 hours at this temperature before the culture was quickly chilled on ice. The cells were centrifuged and the cell pellet was resuspended in 20 mL 50 mmol MES buffer (pH 6.0) containing 1 mmol EDTA, 1 mmol DTT, 1 mmol PMSF and 10% glycerol ("Buffer A"). Cells were lysed by sonication using a Fischer Model 300 Dismembrator and a microtip probe. […] Res. Commun., 167, 554-560 (1990); the production of the pl peptide (SQNY) was measured.
The active fractions were combined, made 1.2M in ammonium sulfate, and applied to a 2.0×18 cm hexyl agarose column that had been equilibrated in Buffer A containing 1.2M ammonium sulfate. The sample was loaded at a flow rate of 1 mL/min at 4° C., washed with the equilibration buffer for 240 min (1 mL/min) and then eluted using a reverse linear gradient of 1.2-0M ammonium sulfate in Buffer A for 120 min at the same flow rate. The column was then washed isocratically in Buffer A for 120 min. […]

The IC50 is the point on the concentration scale where inhibition reaches its midpoint. Take `CC(=O)N[C@@H](CC(N)=O)C(=O)N[C@@H](CSc1ccc2ccccc2c1)[C@H](O)Cc1ccccc1C(=O)NC(C)(C)C` (relative stereo) [Example 1, [2'R-(2'R*,3'R*, 6'S*)]-N(t-butyl)-2-[2'-hydroxy-3'-naphth-2-ylthiomethyl-4',7'-diaza-5',8'-dioxo-6'-(2"-amino-2"-oxoethyl)]nonyl benzamide]: the IC50 was 0.00124 µM. As for `CC(=O)N[C@@H](CC(N)=O)C(=O)N[C@@H](CSc1ccccc1)[C@H](O)Cc1ccccc1C(=O)NC(C)(C)C` (relative stereo) [Example 2, [2'R-(2'R*,3'R*,6'S*)]-N(t-Butyl)-2-[2'-hydroxy-3'-phenylthiomethyl-4',7'-diaza-5',8'-dioxo-6'-(2"-amino-2"-oxoethyl)]nonyl benzamide], the IC50 was 0.0212 µM.

Source of the values: patent publication US5475136A, “Inhibitors of HIV protease useful for the treatment of AIDS” (Eli Lilly and Company, priority 1992, dated 1995).
